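1) Cells in 96-well plates. 2) Compound, 48 h, 5 concentrations. 3) Linear interpolation between surrounding doses. 4) Unreached endpoint = highest concentration. Abbreviation: GI50, concentration required for 50% inhibition of growth.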 The source made the active and inactive calls. Cut-off read from the data, not from the text of the source: active = GI50 up to about 1.1 µM and inactive = higher.
Experiments:
Assay in all cases: NCI anticancer screen, dose series, 48 h
OVCAR-5 = system: OVCAR-5
NCI-H226 = system: NCI-H226
HT-29 = system: HT-29
M14 = system: M14
OVCAR-3 = system: OVCAR-3
A549 = system: A549
SK-MEL-2 = system: SK-MEL-2
SNB-19 = system: SNB-19
LOX IMVI = system: LOX IMVI
CAKI-1 = system: CAKI-1
HCT-116 = system: HCT-116
K562 = system: K562
MOLT-4 = system: MOLT-4
EKVX = system: EKVX
IGROV-1 = system: IGROV-1

Measured: GI50

COc1cc2cc3c4c(cc(OC)c(OC)c4c2cc1OC)CCN3C(=O)N(C)C
inactive: OVCAR-5 > 100 µM | NCI-H226 56.2 µM | HT-29 83.4 µM | M14 > 10 µM | OVCAR-3 > 100 µM | A549 > 100 µM | SK-MEL-2 > 100 µM | SNB-19 > 100 µM | LOX IMVI > 100 µM | CAKI-1 34.8 µM | HCT-116 > 100 µM | K562 > 100 µM | MOLT-4 > 100 µM | EKVX > 100 µM | IGROV-1 > 100 µM

COC(=O)C1=C(CO)C2C=CC1C2 (centres undefined)
inactive: OVCAR-5 > 100 µM | NCI-H226 > 100 µM | HT-29 > 100 µM | M14 > 100 µM | OVCAR-3 > 100 µM | A549 > 100 µM | SK-MEL-2 > 100 µM | SNB-19 > 100 µM | LOX IMVI > 100 µM | CAKI-1 > 100 µM | HCT-116 > 100 µM | K562 > 100 µM | MOLT-4 > 100 µM | EKVX > 100 µM | IGROV-1 > 100 µM

c1ccc(C2N=NN(c3ccccc3)C2N2CCCCC2)cc1 (centres undefined)
inactive: OVCAR-5 > 100 µM | NCI-H226 > 100 µM | HT-29 > 100 µM | M14 > 100 µM | OVCAR-3 > 100 µM | A549 > 100 µM | SK-MEL-2 > 100 µM | SNB-19 > 100 µM | LOX IMVI > 100 µM | CAKI-1 > 100 µM | HCT-116 > 100 µM | K562 > 100 µM | MOLT-4 > 100 µM | EKVX > 100 µM | IGROV-1 52.2 µM

Cc1ccc(NC(=O)c2nc(S)nc(N)c2-c2ccccc2C)cc1C
inactive: OVCAR-5 > 100 µM | NCI-H226 > 100 µM | HT-29 > 100 µM | M14 > 100 µM | OVCAR-3 > 100 µM | A549 > 100 µM | SK-MEL-2 > 100 µM | SNB-19 > 100 µM | LOX IMVI > 100 µM | CAKI-1 > 100 µM | HCT-116 > 100 µM | K562 > 100 µM | MOLT-4 > 100 µM | EKVX > 100 µM | IGROV-1 > 100 µM

O=C(CC(=O)c1ccccc1)C(=O)Nc1ccc(Cl)cc1
inactive: OVCAR-5 > 100 µM | NCI-H226 > 100 µM | HT-29 > 42.8 µM | M14 > 100 µM | OVCAR-3 > 100 µM | A549 > 94.6 µM | SK-MEL-2 > 100 µM | SNB-19 > 100 µM | LOX IMVI > 42 µM | CAKI-1 > 100 µM | HCT-116 > 42.8 µM | K562 > 85.5 µM | MOLT-4 > 100 µM | EKVX > 100 µM | IGROV-1 > 100 µM

Cn1c(=O)c(C2c3ccccc3Oc3c2c(=O)n(C)c2ccccc32)c(O)c2ccccc21 (centres undefined)
inactive: OVCAR-5 > 100 µM | NCI-H226 46 µM | HT-29 92.7 µM | M14 60 µM | OVCAR-3 52 µM | A549 72.6 µM | SK-MEL-2 61.7 µM | SNB-19 44.4 µM | LOX IMVI 37.9 µM | CAKI-1 46.9 µM | HCT-116 43.2 µM | K562 51.2 µM | MOLT-4 39.4 µM | EKVX 41.2 µM | IGROV-1 59.2 µM

N#CC1([N+](=O)[O-])C=C1c1ccccc1 (centres undefined)
inactive: OVCAR-5 > 100 µM | NCI-H226 95.3 µM | HT-29 35.9 µM | M14 42.6 µM | OVCAR-3 > 100 µM | A549 > 100 µM | SK-MEL-2 > 100 µM | SNB-19 > 100 µM | LOX IMVI 28.6 µM | CAKI-1 82.4 µM | HCT-116 32.4 µM | K562 23.2 µM | MOLT-4 22.7 µM | EKVX > 100 µM | IGROV-1 > 100 µM

CC(C)(C)c1cc(CCC(=O)Nc2ccc(Cl)cc2Cl)nc(N)n1
inactive: OVCAR-5 > 100 µM | NCI-H226 > 100 µM | HT-29 > 100 µM | M14 > 100 µM | OVCAR-3 > 100 µM | A549 > 100 µM | SK-MEL-2 > 100 µM | SNB-19 > 100 µM | LOX IMVI > 100 µM | CAKI-1 > 100 µM | HCT-116 > 100 µM | K562 > 100 µM | MOLT-4 > 100 µM | EKVX > 100 µM | IGROV-1 > 100 µM

O=C(/C=C/c1ccccc1F)c1ccc(Cl)c(Cl)c1
inactive: OVCAR-5 > 87.1 µM | NCI-H226 > 100 µM | HT-29 27.3 µM | M14 32.4 µM | OVCAR-3 > 44.8 µM | A549 64 µM | SK-MEL-2 > 75 µM | SNB-19 > 58.6 µM | LOX IMVI 15.4 µM | CAKI-1 38.8 µM | HCT-116 16.3 µM | K562 20.5 µM | MOLT-4 27.4 µM | EKVX > 100 µM | IGROV-1 34.3 µM

CC(O)(c1ccc(OCCC[N+](C)(C)C)cc1)C(C)(O)c1ccc(OCCC[N+](C)(C)C)cc1 (centres undefined)
inactive: OVCAR-5 > 100 µM | NCI-H226 > 100 µM | HT-29 > 100 µM | M14 > 100 µM | OVCAR-3 > 100 µM | A549 > 100 µM | SK-MEL-2 > 100 µM | SNB-19 > 100 µM | LOX IMVI > 100 µM | CAKI-1 > 100 µM | HCT-116 > 100 µM | K562 > 100 µM | EKVX > 100 µM | IGROV-1 > 100 µM

— ChEMBL document CHEMBL1201862, “PubChem BioAssay data set” (2004)
